Source: patent publication US9527879B2, “Aster glehni extracts, fractions or compounds isolated therefrom for the treatment or prevention of hyperuricemia or gout” (KOREA INSTITUTE OF SCIENCE AND TECHNOLOGY, priority 2014, dated 2016)

Target: xanthine oxidase (UniProt P80457)
Test: Inhibition of production of uric acid by xanthine/xanthine oxidase
Format: biochemical
Conditions: xanthine oxidase 0.024 units/mL, 100 μM xanthine, pH 7.5, 25° C.; mean ± SEM of triplicate experiments
Procedure: Uric acid is produced from xanthine oxidation by xanthine oxidase.
Specifically, the sample and xanthine oxidase (0.024 units/mL) were mixed in 100 mM phosphate buffer (pH 7.5) and preincubated at 25° C. for 10 min. The reaction was initiated by the addition of 100 μM xanthine and incubation was further carried out at 25° C. for 30 min. […] The inhibition of uric acid production A (%) was calculated according to Equation 1. […] [Equation 1]

SMILES	IC50 [µM]
COc1cc(CCCO)cc(OC)c1O[C@@H]1OC(COC(=O)/C=C/c2ccc(O)c(O)c2)[C@@H](O)C(O)C1O (stereo partly shown) [Compound 4, 6′-O-Caffeoyldihydrosyringin]	71.1 ± 3.9
C/C(=C\CO)CO[C@@H]1OC(COC(=O)/C=C/c2ccc(O)c(O)c2)[C@@H](O)C(O)C1O (stereo partly shown) [Compound 5]	80 ± 4.9
C[C@H](/C=C/[C@@]1(O)[C@H](C)CC(=O)CC1(C)C)OC1OC(COC(=O)/C=C/c2ccc(O)c(O)c2)C(O)C(O)C1O (stereo partly shown) [Compound 1, 6′-O-caffeoylampelopsisionoside]	93 ± 1.7
CC(=O)/C=C/C1=C(C)C(O)C(O[C@@H]2OC(COC(=O)/C=C/c3ccc(O)c(O)c3)[C@@H](O)C(O)C2O)CC1(C)C (stereo partly shown) [Compound 3, 6′-O-Caffeoylsonchuinoside C]	73.2 ± 5.1
